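Step 1: Grow cells in 96-well plates. Step 2: Expose to compound for 48 hours at 5 concentrations. Step 3: Interpolate endpoints linearly; if unreached, use highest concentration. At the GI50, growth is halved. TGI is the concentration that stops growth completely.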
Assays:
Experiment in all cases: DTP human tumour cell line panel, 48 h
OVCAR-8 ovarian = test system: OVCAR-8 ovarian
CAKI-1 renal = test system: CAKI-1 renal
ACHN renal = test system: ACHN renal
OVCAR-4 ovarian = test system: OVCAR-4 ovarian
NCI/ADR-RES ovarian = test system: NCI/ADR-RES ovarian
NCI-H23 lung = test system: NCI-H23 lung
MDA-MB-231 breast = test system: MDA-MB-231 breast
SK-OV-3 ovarian = test system: SK-OV-3 ovarian
UACC-257 melanoma = test system: UACC-257 melanoma

SMILES	TGI (OVCAR-8 ovarian) [µM]	TGI (CAKI-1 renal) [µM]	TGI (ACHN renal) [µM]	TGI (OVCAR-4 ovarian) [µM]	TGI (NCI/ADR-RES ovarian) [µM]	TGI (NCI-H23 lung) [µM]	TGI (MDA-MB-231 breast) [µM]	TGI (SK-OV-3 ovarian) [µM]	TGI (UACC-257 melanoma) [µM]	GI50 (OVCAR-8 ovarian) [nM]	GI50 (CAKI-1 renal) [nM]	GI50 (ACHN renal) [nM]	GI50 (OVCAR-4 ovarian) [nM]	GI50 (NCI/ADR-RES ovarian) [nM]	GI50 (NCI-H23 lung) [nM]	GI50 (MDA-MB-231 breast) [nM]	GI50 (SK-OV-3 ovarian) [nM]	GI50 (UACC-257 melanoma) [nM]
COc1cc(C(O)c2ccc3c(c2)OCO3)cc(OC)c1OC (configuration not stated)	> 100	> 100	> 100	> 100	> 100	> 100	> 100	> 100	> 100									
CC(=O)n1nc(-c2ccccc2)n(/N=C/c2ccc([N+](=O)[O-])o2)c1=O	33.3	24.4	19.1	35.6	27.5	14.3	17.1	40.2	12.2									
C/C(=C\CO)CC/C=C(\C)CNc1ccc([N+](=O)[O-])cc1	> 100	> 100	> 100	> 100	64.5	57.7	> 100	> 100	76.2									
CN(C)c1ccc(Cc2cc3c(O)ccc(O)c3cc(Cc3ccc(N(C)C)cc3)c2=O)cc1	77.4	20.5	25.3	39.5	> 81.8	53.9	63.5	> 100	48.9									
COc1ccc(Oc2cnn(C(Br)(Br)C(C)=O)c(=O)c2Br)cc1	27	24.6	26.4	32.6	43.9	39	32.5	> 64.3	28.5									
COC1C(O)C(O[C@H]2CC[C@@]3(C)C(CC[C@@H]4[C@@H]3CC[C@]3(C)[C@@H](C(C)OC5OC(CO)C(O)C(O)C5O)CC[C@]43O)C2)OC(C)C1OC1OC(CO)C(O)C(O)C1O (some centres not stated)	> 100	> 100	> 100	> 100	> 100	> 100	> 100	> 100	> 100									
CCOC(=O)C1=CC(C)(C(=O)OCC)Nc2c(nc(N)[nH]c2=O)N1 (configuration not stated)	> 10	> 10	> 10	> 10	> 10	> 10	> 10	> 10	> 10									
CCN1C(=O)C(=C/C=C/c2ccc(N(CC)CC)cc2)C(=O)N(CC)C1=S	> 100	> 100	> 100	> 100	> 100	> 100	> 100	> 100	> 100									
CCN(CCCl)c1cc(CN(C)C)cc(NC(=O)c2ccc(C(=O)Nc3cccc(CN(C)C)c3)cc2)c1	12.8	> 100	10.7	6.08	> 100	11.2	> 100	> 100	3.67									
COc1ccc2c(c1)c(=O)c1c(NCCNCCO)ccc3c(=O)n(CCN(C)C)c(=O)n2c31	1.16	2.79	1.49	0.511	15	0.271	0.508	2.71	1.06									
COc1ccc(-n2nc(C)c3c(Nc4ccc(NC(=O)Nc5ccc(Cl)c(C(F)(F)F)c5)cc4)ncnc32)cc1	11.7	3.51	6.86	> 100	6.22	3.95	3.32	6.27	4.66	2840	1510	1640	2850	1780	1690	1470	2420	1880
c1ccc(C2CC(=NC3CCCCC3)Nc3ccccc3N2)cc1 (configuration not stated)	> 100	> 100	> 100	> 100	> 100	> 100	> 100	> 100	> 100									
Nc1ccc(-c2nn3c(COc4ccc(Cl)cc4)nnc3s2)cc1	> 100	> 100	> 100	> 100	> 100	> 100	> 100	> 100	> 100									
O=C1C=CC(=O)C(CNc2ccc(C(=O)OCc3ccccc3)cc2)=C1	16.8	2.94	12.9	10.4	23.5	30.1	24.9	30.8	25.2									
O=C(CC(=O)Nc1ccccc1)NNC(c1cc(N=Nc2ccc(Br)cc2)ccc1O)P(O)O (configuration not stated)	> 10	> 10	> 10	> 10	> 10	> 10	> 10	> 10	> 10									
Clc1nncc2sc(-c3ccccc3)nc12	59.3	2.91	> 84.9	53.5	69.1	52.9	56.1	80.6	56.7									
COP(=O)(OC)C(Nc1ccc(Cc2ccc(NC(c3ccco3)P(=O)(OC)OC)cc2)cc1)c1ccco1 (configuration not stated)	> 100	86.3	89.9	> 100	> 100	44.5	41.4	73.6	> 100									

Reference: PubChem BioAssay (NCI)
